Test results from ChEMBL document CHEMBL4507280 (2021).

How the values were obtained:
[1] = tested on: Epidermal growth factor receptor (Homo sapiens), P00533 [UNDEFINED MUTATION]; conditions: Compound concentration 1000.0 nM
[2] = molecular target: Serine/threonine-protein kinase Nek1 (Homo sapiens) (UniProt Q96PY6); conditions: Compound concentration 1000.0 nM
[3] = molecular target: Casein kinase II subunit alpha' (Homo sapiens) (UniProt P19784); conditions: Compound concentration 1000.0 nM
[4] = tested on: Mast/stem cell growth factor receptor Kit (Homo sapiens), P10721 [V559D]; conditions: Compound concentration 1000.0 nM
[5] = molecular target: Macrophage colony-stimulating factor 1 receptor (Homo sapiens) (UniProt P07333); conditions: Compound concentration 1000.0 nM
[6] = molecular target: Mitogen-activated protein kinase kinase kinase 19 (Homo sapiens) (UniProt Q56UN5); conditions: Compound concentration 1000.0 nM
[7] = molecular target: Calcium/calmodulin-dependent protein kinase type IV (Homo sapiens) (UniProt Q16566); conditions: Compound concentration 1000.0 nM
[8] = molecular target: NUAK family SNF1-like kinase 1 (Homo sapiens) (UniProt O60285); conditions: Compound concentration 1000.0 nM
[9] = molecular target: Serine/threonine-protein kinase TBK1 (Homo sapiens) (UniProt Q9UHD2); conditions: Compound concentration 1000.0 nM
[10] = molecular target: cAMP-dependent protein kinase catalytic subunit PRKX (Homo sapiens) (UniProt P51817); conditions: Compound concentration 1000.0 nM
[11] = molecular target: 5-hydroxytryptamine receptor 2A (Homo sapiens) (UniProt P28223); conditions: Compound concentration 10.0 uM
[12] = molecular target: Ephrin type-A receptor 7 (Homo sapiens) (UniProt Q15375); conditions: Compound concentration 1000.0 nM
[13] = molecular target: Megakaryocyte-associated tyrosine-protein kinase (Homo sapiens) (UniProt P42679); conditions: Compound concentration 1000.0 nM
[14] = molecular target: Tyrosine-protein kinase Tec (Homo sapiens) (UniProt P42680); conditions: Compound concentration 1000.0 nM
[15] = molecular target: Membrane-associated tyrosine- and threonine-specific cdc2-inhibitory kinase (Homo sapiens) (UniProt Q99640); conditions: Compound concentration 1000.0 nM
[16] = molecular target: Cyclin-dependent kinase 4 (Homo sapiens) (UniProt P11802); conditions: Compound concentration 1000.0 nM
[17] = molecular target: Serine/threonine-protein kinase BRSK2 (Homo sapiens) (UniProt Q8IWQ3); conditions: Compound concentration 1000.0 nM
[18] = molecular target: Tyrosine-protein kinase ABL2 (Homo sapiens) (UniProt P42684); conditions: Compound concentration 1000.0 nM
[19] = molecular target: Homeodomain-interacting protein kinase 4 (Homo sapiens) (UniProt Q8NE63); conditions: Compound concentration 1000.0 nM
[20] = molecular target: RAC-alpha serine/threonine-protein kinase (Homo sapiens) (UniProt P31749); conditions: Compound concentration 1000.0 nM
[21] = tested on: Tyrosine-protein kinase ABL1 (Homo sapiens), P00519 [H396P]; conditions: Compound concentration 1000.0 nM
[22] = molecular target: Mitogen-activated protein kinase 14 (Homo sapiens) (UniProt Q16539); conditions: Compound concentration 1000.0 nM
[23] = molecular target: Macrophage-stimulating protein receptor (Homo sapiens) (UniProt Q04912); conditions: Compound concentration 1000.0 nM
[24] = molecular target: Serine/threonine-protein kinase pim-1 (Homo sapiens) (UniProt P11309); conditions: Compound concentration 1000.0 nM
[25] = molecular target: Inhibitor of nuclear factor kappa-B kinase subunit epsilon (Homo sapiens) (UniProt Q14164); conditions: Compound concentration 1000.0 nM
[26] = tested on: Receptor-type tyrosine-protein kinase FLT3 (Homo sapiens), P36888 [D835H]; conditions: Compound concentration 1000.0 nM
[27] = molecular target: MAP/microtubule affinity-regulating kinase 4 (Homo sapiens) (UniProt Q96L34); conditions: Compound concentration 1000.0 nM
[28] = molecular target: Mitogen-activated protein kinase 1 (Homo sapiens) (UniProt P28482); conditions: Compound concentration 1000.0 nM
[29] = molecular target: Testis-specific serine/threonine-protein kinase 3 (Homo sapiens) (UniProt Q96PN8); conditions: Compound concentration 1000.0 nM
[30] = molecular target: Calcium/calmodulin-dependent protein kinase kinase 1 (Homo sapiens) (UniProt Q8N5S9); conditions: Compound concentration 1000.0 nM
[31] = molecular target: cGMP-dependent protein kinase 2 (Homo sapiens) (UniProt Q13237); conditions: Compound concentration 1000.0 nM
[32] = tested on: Receptor-type tyrosine-protein kinase FLT3 (Homo sapiens), P36888 [UNDEFINED MUTATION]; conditions: Compound concentration 1000.0 nM
[33] = molecular target: Serine/threonine-protein kinase PAK 5 (Homo sapiens) (UniProt Q9P286); conditions: Compound concentration 1000.0 nM
[34] = molecular target: Serine/threonine-protein kinase 17B (Homo sapiens) (UniProt O94768); conditions: Compound concentration 1000.0 nM
[35] = molecular target: Mitogen-activated protein kinase kinase kinase 5 (Homo sapiens) (UniProt Q99683); conditions: Compound concentration 1000.0 nM
[36] = molecular target: Dual specificity protein kinase CLK1 (Homo sapiens) (UniProt P49759); conditions: Compound concentration 1000.0 nM
[37] = molecular target: RAC-gamma serine/threonine-protein kinase (Homo sapiens) (UniProt Q9Y243); conditions: Compound concentration 1000.0 nM
[38] = molecular target: Mitogen-activated protein kinase 15 (Homo sapiens) (UniProt Q8TD08); conditions: Compound concentration 1000.0 nM
[39] = molecular target: Serine/threonine-protein kinase WNK1 (Homo sapiens) (UniProt Q9H4A3); conditions: Compound concentration 1000.0 nM
[40] = molecular target: Cyclin-dependent kinase-like 2 (Homo sapiens) (UniProt Q92772); conditions: Compound concentration 1000.0 nM
[41] = molecular target: Tyrosine-protein kinase HCK (Homo sapiens) (UniProt P08631); conditions: Compound concentration 1000.0 nM
[42] = molecular target: Serine/threonine-protein kinase 3 (Homo sapiens) (UniProt Q13188); conditions: Compound concentration 1000.0 nM
[43] = tested on: Mast/stem cell growth factor receptor Kit (Homo sapiens), P10721 [V559D,V654A]; conditions: Compound concentration 1000.0 nM
[44] = molecular target: 5-hydroxytryptamine receptor 1D (Homo sapiens) (UniProt P28221); conditions: Compound concentration 10.0 uM
[45] = molecular target: D(1B) dopamine receptor (Homo sapiens) (UniProt P21918); conditions: Compound concentration 10.0 uM

Sequence of Serine/threonine-protein kinase WNK1 (Homo sapiens) (Q9H4A3 whole entry, looked up): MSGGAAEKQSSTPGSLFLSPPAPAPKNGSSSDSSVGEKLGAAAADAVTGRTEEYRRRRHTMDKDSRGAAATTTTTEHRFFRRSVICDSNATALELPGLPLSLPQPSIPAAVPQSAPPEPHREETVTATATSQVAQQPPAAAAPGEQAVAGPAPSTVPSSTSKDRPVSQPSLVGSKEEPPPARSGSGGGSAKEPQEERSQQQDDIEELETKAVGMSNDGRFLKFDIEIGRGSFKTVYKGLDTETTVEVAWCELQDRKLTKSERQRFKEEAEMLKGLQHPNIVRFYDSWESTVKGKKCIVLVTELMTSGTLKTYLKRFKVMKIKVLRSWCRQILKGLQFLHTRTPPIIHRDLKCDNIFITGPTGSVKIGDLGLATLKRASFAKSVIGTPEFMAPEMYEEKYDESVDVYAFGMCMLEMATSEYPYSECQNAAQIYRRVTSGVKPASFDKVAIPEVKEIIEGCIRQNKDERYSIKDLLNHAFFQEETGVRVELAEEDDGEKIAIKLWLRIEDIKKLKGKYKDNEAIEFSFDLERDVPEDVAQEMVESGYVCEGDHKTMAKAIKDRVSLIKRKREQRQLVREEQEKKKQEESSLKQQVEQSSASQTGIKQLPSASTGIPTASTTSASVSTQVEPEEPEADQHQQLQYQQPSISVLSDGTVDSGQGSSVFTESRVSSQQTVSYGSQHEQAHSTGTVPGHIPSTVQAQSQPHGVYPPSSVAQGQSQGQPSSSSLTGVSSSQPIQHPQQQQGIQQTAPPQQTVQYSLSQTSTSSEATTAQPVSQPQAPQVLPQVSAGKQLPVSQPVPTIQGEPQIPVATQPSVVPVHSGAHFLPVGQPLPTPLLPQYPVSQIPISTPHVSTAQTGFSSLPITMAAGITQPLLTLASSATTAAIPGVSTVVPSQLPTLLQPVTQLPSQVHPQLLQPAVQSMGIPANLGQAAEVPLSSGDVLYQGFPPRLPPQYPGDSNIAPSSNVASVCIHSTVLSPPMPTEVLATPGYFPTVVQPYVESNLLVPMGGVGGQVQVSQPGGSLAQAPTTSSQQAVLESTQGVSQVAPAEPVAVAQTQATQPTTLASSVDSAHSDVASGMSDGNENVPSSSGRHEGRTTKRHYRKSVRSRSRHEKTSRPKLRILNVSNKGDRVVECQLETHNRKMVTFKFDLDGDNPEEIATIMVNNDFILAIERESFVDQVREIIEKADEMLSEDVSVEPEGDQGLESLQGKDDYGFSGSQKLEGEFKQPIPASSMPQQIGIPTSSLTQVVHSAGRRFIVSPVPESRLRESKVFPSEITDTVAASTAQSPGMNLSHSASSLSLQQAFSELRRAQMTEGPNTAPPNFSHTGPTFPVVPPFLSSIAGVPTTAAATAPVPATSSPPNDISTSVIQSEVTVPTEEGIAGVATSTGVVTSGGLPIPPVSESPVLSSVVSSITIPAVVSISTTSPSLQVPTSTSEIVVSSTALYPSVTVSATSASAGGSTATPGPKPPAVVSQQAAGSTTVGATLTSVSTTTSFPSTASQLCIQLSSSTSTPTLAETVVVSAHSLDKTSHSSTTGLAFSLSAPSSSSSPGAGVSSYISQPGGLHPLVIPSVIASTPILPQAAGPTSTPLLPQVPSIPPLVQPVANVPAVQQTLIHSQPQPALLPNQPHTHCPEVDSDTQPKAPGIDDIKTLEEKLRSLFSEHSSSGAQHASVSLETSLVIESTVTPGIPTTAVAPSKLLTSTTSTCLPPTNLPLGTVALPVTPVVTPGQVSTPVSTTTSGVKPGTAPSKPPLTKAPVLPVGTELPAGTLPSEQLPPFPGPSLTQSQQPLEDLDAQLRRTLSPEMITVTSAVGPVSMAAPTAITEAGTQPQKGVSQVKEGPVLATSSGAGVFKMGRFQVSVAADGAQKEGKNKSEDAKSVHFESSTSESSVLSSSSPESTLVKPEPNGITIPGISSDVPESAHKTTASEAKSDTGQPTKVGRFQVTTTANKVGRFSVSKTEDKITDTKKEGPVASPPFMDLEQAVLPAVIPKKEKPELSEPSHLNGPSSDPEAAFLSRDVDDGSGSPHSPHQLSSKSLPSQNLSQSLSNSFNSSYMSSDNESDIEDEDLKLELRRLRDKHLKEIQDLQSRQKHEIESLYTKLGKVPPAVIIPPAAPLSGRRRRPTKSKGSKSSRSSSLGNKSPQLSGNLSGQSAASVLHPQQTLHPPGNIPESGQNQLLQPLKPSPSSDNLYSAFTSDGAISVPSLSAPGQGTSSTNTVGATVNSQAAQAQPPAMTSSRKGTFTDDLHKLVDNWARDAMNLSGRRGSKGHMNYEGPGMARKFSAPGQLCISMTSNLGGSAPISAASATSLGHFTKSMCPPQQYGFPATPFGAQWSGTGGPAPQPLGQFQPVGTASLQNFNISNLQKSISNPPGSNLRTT
Sequence of Dual specificity protein kinase CLK1 (Homo sapiens) (P49759 whole entry, looked up): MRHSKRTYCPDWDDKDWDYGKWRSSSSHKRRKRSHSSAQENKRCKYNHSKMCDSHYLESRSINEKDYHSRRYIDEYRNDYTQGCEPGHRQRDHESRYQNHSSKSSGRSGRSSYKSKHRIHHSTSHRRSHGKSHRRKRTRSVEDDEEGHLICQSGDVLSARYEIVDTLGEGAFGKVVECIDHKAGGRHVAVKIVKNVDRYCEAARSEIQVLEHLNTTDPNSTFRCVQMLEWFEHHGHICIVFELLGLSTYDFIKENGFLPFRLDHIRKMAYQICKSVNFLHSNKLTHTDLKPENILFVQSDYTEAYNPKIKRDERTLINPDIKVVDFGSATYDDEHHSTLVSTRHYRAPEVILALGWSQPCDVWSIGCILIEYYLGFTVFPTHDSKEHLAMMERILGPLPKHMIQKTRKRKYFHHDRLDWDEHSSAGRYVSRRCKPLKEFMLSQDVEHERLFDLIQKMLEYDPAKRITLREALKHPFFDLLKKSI
Sequence of Tyrosine-protein kinase Tec (Homo sapiens) (P42680 whole entry): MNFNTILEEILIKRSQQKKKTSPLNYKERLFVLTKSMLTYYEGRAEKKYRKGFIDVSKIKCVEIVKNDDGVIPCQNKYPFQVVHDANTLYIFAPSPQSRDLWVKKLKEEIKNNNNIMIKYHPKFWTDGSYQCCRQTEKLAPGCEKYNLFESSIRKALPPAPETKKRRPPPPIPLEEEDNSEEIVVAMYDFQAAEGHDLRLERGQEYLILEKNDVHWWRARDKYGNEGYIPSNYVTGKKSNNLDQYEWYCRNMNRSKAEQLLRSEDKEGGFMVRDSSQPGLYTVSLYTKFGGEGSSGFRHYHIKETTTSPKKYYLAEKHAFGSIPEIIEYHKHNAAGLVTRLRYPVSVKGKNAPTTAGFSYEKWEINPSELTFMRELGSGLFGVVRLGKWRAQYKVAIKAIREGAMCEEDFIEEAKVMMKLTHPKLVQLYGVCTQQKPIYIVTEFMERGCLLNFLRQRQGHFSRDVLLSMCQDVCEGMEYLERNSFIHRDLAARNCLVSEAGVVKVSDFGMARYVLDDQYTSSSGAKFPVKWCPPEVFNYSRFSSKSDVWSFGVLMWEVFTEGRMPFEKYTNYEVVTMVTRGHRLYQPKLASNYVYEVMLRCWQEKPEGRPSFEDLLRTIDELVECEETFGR
Sequence of Serine/threonine-protein kinase TBK1 (Homo sapiens) (Q9UHD2 whole entry): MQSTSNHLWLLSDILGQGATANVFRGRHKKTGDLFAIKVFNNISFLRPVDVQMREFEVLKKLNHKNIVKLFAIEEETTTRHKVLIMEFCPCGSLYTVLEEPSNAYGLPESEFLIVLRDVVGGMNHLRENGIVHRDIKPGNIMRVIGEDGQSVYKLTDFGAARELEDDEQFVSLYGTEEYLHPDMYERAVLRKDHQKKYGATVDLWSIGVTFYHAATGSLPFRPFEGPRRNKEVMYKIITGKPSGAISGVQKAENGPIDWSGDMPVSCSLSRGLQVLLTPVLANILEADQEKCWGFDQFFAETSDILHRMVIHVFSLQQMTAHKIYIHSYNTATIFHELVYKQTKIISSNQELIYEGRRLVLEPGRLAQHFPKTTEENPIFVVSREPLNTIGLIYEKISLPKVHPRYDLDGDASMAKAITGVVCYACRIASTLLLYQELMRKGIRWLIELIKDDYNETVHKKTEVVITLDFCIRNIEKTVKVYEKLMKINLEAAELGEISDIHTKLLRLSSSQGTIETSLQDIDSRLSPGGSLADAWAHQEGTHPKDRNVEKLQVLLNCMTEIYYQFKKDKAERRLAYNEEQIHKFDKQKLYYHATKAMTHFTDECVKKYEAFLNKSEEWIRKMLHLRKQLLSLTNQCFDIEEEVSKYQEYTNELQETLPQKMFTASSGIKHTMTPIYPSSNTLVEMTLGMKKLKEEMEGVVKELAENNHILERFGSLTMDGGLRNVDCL
Sequence of RAC-alpha serine/threonine-protein kinase (Homo sapiens) (P31749 whole entry): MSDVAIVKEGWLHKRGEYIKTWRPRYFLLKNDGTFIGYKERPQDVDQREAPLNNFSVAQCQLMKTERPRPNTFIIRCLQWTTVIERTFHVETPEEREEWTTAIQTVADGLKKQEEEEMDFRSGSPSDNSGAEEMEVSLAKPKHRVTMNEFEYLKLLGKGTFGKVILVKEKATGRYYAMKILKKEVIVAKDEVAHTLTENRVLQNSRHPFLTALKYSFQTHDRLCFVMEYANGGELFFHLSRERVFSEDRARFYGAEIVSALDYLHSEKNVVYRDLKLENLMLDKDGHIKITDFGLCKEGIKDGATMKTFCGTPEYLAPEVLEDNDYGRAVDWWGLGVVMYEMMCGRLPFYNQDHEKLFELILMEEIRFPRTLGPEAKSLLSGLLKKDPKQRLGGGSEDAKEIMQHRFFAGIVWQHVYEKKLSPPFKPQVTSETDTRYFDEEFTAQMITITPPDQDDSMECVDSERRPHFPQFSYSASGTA
Sequence of Mitogen-activated protein kinase 1 (Homo sapiens) (P28482 whole entry): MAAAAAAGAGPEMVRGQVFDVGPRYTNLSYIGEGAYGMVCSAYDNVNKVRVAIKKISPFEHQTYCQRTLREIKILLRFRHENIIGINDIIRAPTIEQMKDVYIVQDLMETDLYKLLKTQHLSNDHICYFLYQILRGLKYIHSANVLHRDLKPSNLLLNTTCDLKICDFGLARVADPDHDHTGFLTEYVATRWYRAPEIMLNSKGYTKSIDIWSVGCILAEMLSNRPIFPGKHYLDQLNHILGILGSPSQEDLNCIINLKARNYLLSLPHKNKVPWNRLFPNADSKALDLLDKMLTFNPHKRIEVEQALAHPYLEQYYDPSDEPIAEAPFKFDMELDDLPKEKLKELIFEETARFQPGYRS

CCC(=O)N[C@@H]1CC[C@H](C(=O)N(C)c2ccc(-c3nc4ccccc4o3)cc2)C1 [BI 99990]
residual activity [1]: 100% | residual activity [2]: 100% | residual activity [3]: 100% | residual activity [4]: 100% | residual activity [5]: 88% | residual activity [6]: 92% | residual activity [7]: 100% | residual activity [8]: 100% | residual activity [9]: 65% | residual activity [10]: 100% | inhibition [11]: -9.08% | residual activity [12]: 100% | residual activity [13]: 100% | residual activity [14]: 100% | residual activity [15]: 100% | residual activity [16]: 96% | residual activity [17]: 76% | residual activity [18]: 100% | residual activity [19]: 100% | residual activity [20]: 100% | residual activity [21]: 46% | residual activity [22]: 95% | residual activity [23]: 100% | residual activity [24]: 100% | residual activity [25]: 60% | residual activity [26]: 100% | residual activity [27]: 82% | residual activity [28]: 88% | residual activity [29]: 97% | residual activity [30]: 100% | residual activity [31]: 92% | residual activity [32]: 94% | residual activity [33]: 100% | residual activity [34]: 99% | residual activity [35]: 100% | residual activity [36]: 100% | residual activity [37]: 100% | residual activity [38]: 100% | residual activity [39]: 100% | residual activity [40]: 100% | residual activity [41]: 100% | residual activity [42]: 100% | residual activity [43]: 100% | inhibition [44]: -8.27% | inhibition [45]: 4.47%

CCC(=O)N[C@H]1CC[C@@H](C(=O)N(C)c2ccc(-c3nc4ccccc4o3)cc2)C1 [BI 99179]
residual activity [1]: 100% | residual activity [2]: 100% | residual activity [3]: 100% | residual activity [4]: 94% | residual activity [5]: 93% | residual activity [6]: 69% | residual activity [7]: 88% | residual activity [8]: 100% | residual activity [9]: 78% | residual activity [10]: 91% | inhibition [11]: 2.34% | residual activity [12]: 97% | residual activity [13]: 100% | residual activity [14]: 100% | residual activity [15]: 99% | residual activity [16]: 79% | residual activity [17]: 97% | residual activity [18]: 100% | residual activity [19]: 100% | residual activity [20]: 97% | residual activity [21]: 100% | residual activity [22]: 100% | residual activity [23]: 87% | residual activity [24]: 100% | residual activity [25]: 52% | residual activity [26]: 95% | residual activity [27]: 100% | residual activity [28]: 76% | residual activity [29]: 100% | residual activity [30]: 85% | residual activity [31]: 100% | residual activity [32]: 100% | residual activity [33]: 100% | residual activity [34]: 84% | residual activity [35]: 100% | residual activity [36]: 93% | residual activity [37]: 100% | residual activity [38]: 100% | residual activity [39]: 100% | residual activity [40]: 100% | residual activity [41]: 100% | residual activity [42]: 100% | residual activity [43]: 89% | inhibition [44]: 6.85% | inhibition [45]: -9.45%
